The values below come from US20240059691A1 (KALVISTA PHARMACEUTICALS LIMITED, priority 2020, published 2024).

As a reminder, the IC50 is the concentration at which inhibition is half-maximal. The term half-life denotes the time needed for the level to fall by half in the phase considered. Higher therefore signals slow decline. One may read the bioavailability as the share of a dose that reaches the circulation, judged against a reference dose that is usually intravenous.

Series [1] concerns the target Human Factor XIIa (Homo sapiens (Human), UniProt P00748). Kind of series: Determination of FXIIa inhibition (fluorogenic substrate H-DPro-Phe-Arg-AFC, IC50 assay). It counts as biochemical. To be noted: substrate H-DPro-Phe-Arg-AFC at Km, 25° C.; class scale A-G. The method, boiled down:
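IC50 derived from % remaining activity, taken as the linear fluorescence rate over a 5 min read at 25° C. Substrate H-DPro-Phe-Arg-AFC was used at its Km (Michaelis-Menten) with human FXIIa and serial compound dilutions, 25° C.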

Series [2] concerns the target Plasma Kallikrein (Homo sapiens (Human), UniProt P03952). Kind of series: Determination of related protease inhibition: Plasma Kallikrein (fluorogenic substrate at Km). It counts as biochemical. The conditions noted are these: 25° C., read-out: IC50 (human PKal). The gist of the method: (§1)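 IC50 values derive from the linear rate of fluorescence increase, normalised to uninhibited enzyme as 100% activity. Each human protease was run against its fluorogenic substrate at Km concentration with varying compound levels, with product fluorescence followed over 5 min at 25 °C.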

Series [3] concerns the target FXa (Homo sapiens (Human), UniProt P00742). Kind of series: Determination of related protease inhibition: FXa (fluorogenic substrate at Km). It counts as biochemical. The conditions noted are these: 25° C. The gist of the method:
as §1

Series [4] deals with Thrombin (Homo sapiens (Human), UniProt P00734). In words: Determination of related protease inhibition: Thrombin (fluorogenic substrate at Km). The format is biochemical. To be noted: 25° C. The gist of the method:
as §1

Series [5] has as its target FXIa (Homo sapiens (Human), UniProt P03951). In words: Determination of related protease inhibition: FXIa (fixed substrate concentration of 100 μM). It counts as biochemical. To be noted: 25° C. As for the experimental part: (§2) Determination of Related Protease Inhibition
(§3) In vitro inhibition of related proteases was determined using an ([…] assay based on standard literature methods (see e.g. Shori et al., Biochem. Pharmacol., 1992, 43, 1209; Bouckaert et al., European Journal of Medicinal Chemistry 110 (2016) 181). Human serine protease enzymes Plasma Kallikrein, KLK1, FXa, Plasmin, Thrombin and Trypsin were assayed for enzymatic activity using an appropriate fluorogenic substrate at Km concentration, FXIa at fixed substrate concentration of 100 μM, and various concentrations of the test compound. Protease activity was measured by monitoring the accumulation of liberated fluorescence from the substrate over […]. The linear rate of fluorescence increase per minute was expressed as percentage (%) activity. IC50 values were calculated as the concentration of inhibitor giving 50% inhibition of the uninhibited enzyme activity (100%).

Series [6] can be described thus: Pharmacokinetics following a single intravenous dose and a single oral dose in male Sprague-Dawley rats (oral bioavailability, half-life). The format is in vivo. To be noted: rat, plasma, 10% DMSO/10% Cremophor EL/80% SWFI; for bioavailability: read-out: F % (oral bioavailability). Here is the method: Pharmacokinetic studies of the compounds in Table 16 were performed to assess the pharmacokinetics following a single intravenous dose and a single oral dose in male Sprague-Dawley rats. Two rats were given a single intravenous dose of 1 mL/kg of a nominal 1 mg/mL (1 mg/kg) composition of test compound in 10% DMSO/10% Cremophor EL/80% SWFI vehicle. Example 2191 was dosed at 1 mL/kg of a nominal 2 mg/mL (2 mg/kg) using the same vehicle.
Two rats were given a single oral dose of 5 mL/kg of a nominal 1 mg/mL (5 mg/kg) composition of test compound in 10% DMSO/10% Cremophor EL/80% SWFI vehicle. Example 2191 was dosed at 5 mL/kg of a nominal 2 mg/mL (10 mg/kg) using the same vehicle.
Following intravenous dosing, blood samples were collected over a period of 12 h. Sample times were 2, 5, 15 and 30 min then 1, 2, 4, 6, and 12 h. Following oral dosing, blood samples were collected over a period of 24 h. Sample times were 5, 15 and 30 min then 1, 2, 4, 6, 8, 12 and 24 h.
Following collection, blood samples were centrifuged and the plasma fraction analysed for concentration of test compound by LCMS. Oral bioavailability and half-life calculations from these studies were obtained using Phoenix WinNonlin (v8.0) and are shown below: […]

Series [7] deals with KLK1 (Homo sapiens (Human), UniProt P06870). In words: Determination of related protease inhibition: KLK1 (fluorogenic substrate at Km). The format is biochemical. The conditions noted are these: 25° C. The method, boiled down:
as §1

Series [8] has as its target Plasmin (Homo sapiens (Human), UniProt P00747). In words: Determination of related protease inhibition: Plasmin (fluorogenic substrate at Km). The conditions noted are these: 25° C. It counts as biochemical. Here is the method:
as §2, §3

Series [9] addresses Trypsin. In words: Determination of related protease inhibition: Trypsin (fluorogenic substrate at Km). It counts as biochemical, human. The conditions noted are these: 25° C. As for the experimental part:
as §2, §3

Like-named read-outs stand apart in the source and are kept apart here.

Sequence of Human Factor XIIa (P00748 373-615): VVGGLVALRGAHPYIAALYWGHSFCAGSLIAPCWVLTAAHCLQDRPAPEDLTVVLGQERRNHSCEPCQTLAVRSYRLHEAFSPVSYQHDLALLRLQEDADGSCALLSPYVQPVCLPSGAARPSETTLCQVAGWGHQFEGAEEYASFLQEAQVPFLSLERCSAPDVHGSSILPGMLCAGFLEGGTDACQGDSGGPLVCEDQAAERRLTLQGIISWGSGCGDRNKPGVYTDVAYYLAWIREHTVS
Sequence of KLK1 (P06870 25-262): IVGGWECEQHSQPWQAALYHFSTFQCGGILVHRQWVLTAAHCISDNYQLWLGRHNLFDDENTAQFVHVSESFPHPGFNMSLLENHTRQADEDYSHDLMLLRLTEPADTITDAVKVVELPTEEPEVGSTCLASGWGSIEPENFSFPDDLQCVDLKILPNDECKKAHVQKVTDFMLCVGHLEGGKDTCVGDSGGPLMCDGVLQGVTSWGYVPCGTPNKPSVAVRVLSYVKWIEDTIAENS
Sequence of FXa (P00742 235-488): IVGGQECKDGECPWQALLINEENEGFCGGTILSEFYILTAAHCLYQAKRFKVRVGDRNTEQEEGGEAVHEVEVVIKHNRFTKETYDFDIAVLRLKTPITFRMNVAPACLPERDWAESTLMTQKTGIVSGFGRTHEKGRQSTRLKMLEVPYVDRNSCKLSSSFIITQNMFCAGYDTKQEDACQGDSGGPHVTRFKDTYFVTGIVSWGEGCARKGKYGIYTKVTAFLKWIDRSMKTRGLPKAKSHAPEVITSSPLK
Sequence of FXa (P00742 41-179 partner): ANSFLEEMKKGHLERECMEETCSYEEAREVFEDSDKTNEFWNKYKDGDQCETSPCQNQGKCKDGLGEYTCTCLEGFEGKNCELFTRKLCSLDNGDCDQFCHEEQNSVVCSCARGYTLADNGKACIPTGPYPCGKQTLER
Sequence of FXIa (P03951 388-625): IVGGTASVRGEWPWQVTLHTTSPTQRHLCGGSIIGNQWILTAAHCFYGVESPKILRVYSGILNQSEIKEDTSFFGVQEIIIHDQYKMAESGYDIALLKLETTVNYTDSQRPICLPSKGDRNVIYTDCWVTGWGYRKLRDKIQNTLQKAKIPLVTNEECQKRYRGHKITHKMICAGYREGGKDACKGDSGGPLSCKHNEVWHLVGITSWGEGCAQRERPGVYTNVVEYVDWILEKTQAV
Sequence of FXIa (P03951 19-387 partner): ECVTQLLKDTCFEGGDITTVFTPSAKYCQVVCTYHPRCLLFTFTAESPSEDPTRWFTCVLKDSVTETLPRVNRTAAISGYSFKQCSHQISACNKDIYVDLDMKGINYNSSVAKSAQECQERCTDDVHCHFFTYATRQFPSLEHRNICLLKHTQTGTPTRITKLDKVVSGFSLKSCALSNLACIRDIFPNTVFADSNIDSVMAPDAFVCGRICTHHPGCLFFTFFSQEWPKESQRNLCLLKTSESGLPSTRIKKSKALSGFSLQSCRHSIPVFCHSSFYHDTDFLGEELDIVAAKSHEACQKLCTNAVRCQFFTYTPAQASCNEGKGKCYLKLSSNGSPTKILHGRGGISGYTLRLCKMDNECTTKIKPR
Sequence of Plasma Kallikrein (P03952 391-638): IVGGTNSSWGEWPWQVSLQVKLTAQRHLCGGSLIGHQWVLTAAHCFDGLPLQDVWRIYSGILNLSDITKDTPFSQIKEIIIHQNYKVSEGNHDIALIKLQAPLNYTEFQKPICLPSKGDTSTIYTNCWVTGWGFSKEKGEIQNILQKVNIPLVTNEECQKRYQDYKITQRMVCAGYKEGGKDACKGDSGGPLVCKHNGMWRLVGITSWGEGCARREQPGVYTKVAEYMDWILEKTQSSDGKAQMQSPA
Sequence of Plasma Kallikrein (P03952 20-390 partner): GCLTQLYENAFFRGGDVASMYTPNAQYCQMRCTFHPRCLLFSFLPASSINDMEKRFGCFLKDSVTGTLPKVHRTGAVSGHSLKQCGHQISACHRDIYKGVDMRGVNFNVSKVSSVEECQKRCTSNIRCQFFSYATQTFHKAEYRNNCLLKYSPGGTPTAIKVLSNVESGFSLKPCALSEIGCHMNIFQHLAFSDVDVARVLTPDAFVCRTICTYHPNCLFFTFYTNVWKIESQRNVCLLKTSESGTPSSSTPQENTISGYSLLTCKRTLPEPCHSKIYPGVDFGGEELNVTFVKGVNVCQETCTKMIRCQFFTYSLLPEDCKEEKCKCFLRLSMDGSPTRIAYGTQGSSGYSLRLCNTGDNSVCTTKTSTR
Sequence of Plasmin (P00747 581-810): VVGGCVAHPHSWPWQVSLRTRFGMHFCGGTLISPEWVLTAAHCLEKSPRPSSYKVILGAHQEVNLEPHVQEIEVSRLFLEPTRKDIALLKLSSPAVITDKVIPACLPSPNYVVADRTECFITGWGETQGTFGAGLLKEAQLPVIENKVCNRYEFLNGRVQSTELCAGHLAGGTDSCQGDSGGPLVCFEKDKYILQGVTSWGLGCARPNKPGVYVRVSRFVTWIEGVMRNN
Sequence of Plasmin (P00747 97-580 partner): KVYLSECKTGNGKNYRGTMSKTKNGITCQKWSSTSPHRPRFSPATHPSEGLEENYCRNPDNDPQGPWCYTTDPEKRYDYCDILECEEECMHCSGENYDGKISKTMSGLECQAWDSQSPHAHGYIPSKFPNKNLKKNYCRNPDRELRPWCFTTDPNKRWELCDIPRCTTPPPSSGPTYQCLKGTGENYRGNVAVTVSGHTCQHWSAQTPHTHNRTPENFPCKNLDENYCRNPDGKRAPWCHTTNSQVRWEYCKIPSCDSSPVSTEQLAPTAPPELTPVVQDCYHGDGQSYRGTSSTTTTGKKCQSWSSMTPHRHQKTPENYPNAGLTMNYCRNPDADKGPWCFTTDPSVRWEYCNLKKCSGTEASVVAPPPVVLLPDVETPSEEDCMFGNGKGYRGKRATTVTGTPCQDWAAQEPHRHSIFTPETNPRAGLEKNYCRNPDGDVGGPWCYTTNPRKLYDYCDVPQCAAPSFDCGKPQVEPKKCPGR

Consider `CN1CCC(COc2cc(CNc3cccc4c(N)nccc34)ccn2)CC1` [Example 4260, N5-((2-((1-methylpiperidin-4-yl)methoxy)pyridin-4-yl)methyl)isoquinoline-1,5-diamine], for which the IC50 in series [1] was 0.1 to 0.3 µM; in series [2], > 20 µM; in series [3], > 20 µM; in series [4], > 20 µM; in series [5], > 20 µM. The half-life in series [6] came out at 9.98 h. Also, in [6], the bioavailability came to 13.6%.
`Nc1ncc(F)c2c(NCc3ccnc(OCC4CCn5ccnc5C4)c3)cccc12` (stereo not drawn) [Example 4308, 4-fluoro-5-N-[(2-{5H,6H,7H,8H-imidazo[1,2-a]pyridin-7-ylmethoxy}pyridin-4-yl)methyl]isoquinoline-1,5-diamine]: the IC50 in [1] was 3 to 10 µM; in [2], > 40 µM; in series [7], 10 to 40 µM; in series [3], > 40 µM; in series [8], > 40 µM; in [4] it was > 40 µM. Also, the IC50 in series [9] and in series [5] was > 40 µM in each case.
For the compound `CN1CCC(CNc2ccc(CNc3ccnc4[nH]ccc34)cn2)CC1` [Example 1197, N-((6-(((1-methylpiperidin-4-yl)methyl)amino)pyridin-3-yl)methyl)-1H-pyrrolo[2,3-b]pyridin-4-amine], the IC50 in series [1] was 1 to 3 µM; in series [2], > 40 µM; in [7], > 40 µM; in [3], > 40 µM; in series [8], > 40 µM; in [4], > 40 µM. Further, the IC50 in series [9] and in series [5] was > 40 µM each time.
For `FC(F)c1nnc2n1CCN(c1ccc(CNc3ccnc4[nH]c(Cl)cc34)cn1)C2` [Example 1277, 2-chloro-N-((6-(3-(difluoromethyl)-5,6-dihydro-[1,2,4]triazolo[4,3-a]pyrazin-7(8H)-yl)pyridin-3-yl)methyl)-1H-pyrrolo[2,3-b]pyridin-4-amine], the IC50 is 0.3 to 1 µM in series [1]; > 40 µM in series [2]; 10 to 40 µM in series [7]; > 40 µM in [3]; 10 to 40 µM in series [4]. Further, the half-life in series [6] amounted to 1.35 h. Further, in series [6], the bioavailability was 25%.
Take `CN1CCC(Oc2ccc(CNc3ccc4c(N)nccc4c3)cn2)CC1` [Example 1001, 6-N-({6-[(1-methylpiperidin-4-yl)oxy]pyridin-3-yl}methyl)isoquinoline-1,6-diamine]: the IC50 was 0.3 to 1 µM in [1]; 1 to 3 µM in series [2]; 1 to 3 µM in [3]; > 40 µM in [8]; 1 to 3 µM in series [4]; 10 to 40 µM in [9].
On to `CN1CCC(OCc2ccc(CNc3cccc4c(N)nccc34)cc2)CC1` [Example 2186, N5-(4-(((1-methylpiperidin-4-yl)oxy)methyl)benzyl)isoquinoline-1,5-diamine], for which the IC50 in series [1] was 0.1 to 0.3 µM; in series [2], 10 to 40 µM; in series [3] it was 10 to 40 µM; in [4], > 40 µM; in series [5], > 40 µM. Besides, in series [6], the half-life was 4.39 h. Further, the bioavailability in [6] worked out at 15.8%.
As for `CN1CCC(OCc2ccc(CNc3ccc4c(N)nccc4c3)c(F)c2)CC1` [Example 2191, N6-(2-fluoro-4-(((1-methylpiperidin-4-yl)oxy)methyl)benzyl)isoquinoline-1,6-diamine], the IC50 in [1] is 0.1 to 0.3 µM; in series [2] it was 10 to 40 µM; in series [3], 10 to 40 µM; in series [4], > 40 µM; in series [5] it was > 40 µM. This compound also gave a half-life in [6] of 9.02 h. For the same compound, the bioavailability in series [6] was 22.8%.
Take `CN1CCC(COc2cc(CNc3cccc4[nH]nc(Cl)c34)ccn2)CC1` [Example 4454, 3-chloro-N-((2-((1-methylpiperidin-4-yl)methoxy)pyridin-4-yl)methyl)-1H-indazol-4-amine]: the IC50 in series [2] was > 100 µM; in series [7], 1 to 3 µM; in series [3], > 40 µM; in series [8], > 40 µM; in series [4], > 40 µM; in [9], > 40 µM. For the same compound, in series [5], the IC50 was > 40 µM.
Regarding `Nc1nccc2c(NCc3ccc(N4CCn5c(nnc5C(F)F)C4)nc3)cccc12` [Example 1274, N5-((6-(3-(Difluoromethyl)-5,6-dihydro-[1,2,4]triazolo[4,3-a]pyrazin-7(8H)-yl)pyridin-3-yl)methyl)isoquinoline-1,5-diamine], the IC50 was 0.3 to 1 µM in series [1]; > 40 µM in series [2]; 1 to 3 µM in series [7]; > 40 µM in series [3]; 10 to 40 µM in [4]. In [6], this compound displayed a half-life of 2.52 h. In addition, the bioavailability in series [6] amounted to 32.1%.
For `CN1CCC(Oc2ccc(CNc3cccc4c(N)nccc34)cc2)CC1` [Example 1002, 5-N-({4-[(1-methylpiperidin-4-yl)oxy]phenyl}methyl)isoquinoline-1,5-diamine], the IC50 is 0.1 to 0.3 µM in series [1]; 10 to 40 µM in series [3]; > 40 µM in series [8]; > 40 µM in [4]; > 40 µM in [9].
As to `Nc1nccc2c(NCc3ccc(OCC4CCn5ccnc5C4)nc3)cccc12` (single isomer, unassigned) [Example 1029, (R*)-N5-((6-((5,6,7,8-tetrahydroimidazo[1,2-a]pyridin-7-yl)methoxy)pyridin-3-yl)methyl)isoquinoline-1,5-diamine], the IC50 fell in the range of 0.1 to 0.3 µM in [1]; 10 to 40 µM in [2]; 3 to 10 µM in [7]; 10 to 40 µM in series [3]; 10 to 40 µM in series [4]. In addition, the half-life in series [6] was determined as 6.18 h. Besides, in [6], the bioavailability was 9.7%.
Take `CN1CCC(OCc2ccc(CNc3cccc4c(N)nccc34)c(F)c2)CC1` [Example 2197, N5-(2-fluoro-4-(((1-methylpiperidin-4-yl)oxy)methyl)benzyl)isoquinoline-1,5-diamine]: the IC50 is 0.01 to 0.1 µM in series [1]; > 20 µM in series [2]; > 20 µM in [3]; > 20 µM in [4]; > 20 µM in series [5]. The bioavailability in series [6] (5 mg/kg) was found to be 26.6%. For the same compound, the half-life in series [6] is 6.87 h.
As to `CN1CCC(CNc2ccc(CNc3ccnc4[nH]c(Cl)cc34)cn2)CC1` [Example 1243, 2-chloro-N-((6-(((1-methylpiperidin-4-yl)methyl)amino)pyridin-3-yl)methyl)-1H-pyrrolo [2,3-b]pyridin-4-amine], the IC50 in series [1] was 0.01 to 0.1 µM; in series [2], > 40 µM; in series [7], 10 to 40 µM; in [3], 10 to 40 µM; in series [4] it was > 40 µM. This compound gave a half-life in series [6] of 8.76 h. Moreover, the bioavailability in series [6] was 4.9%.
As to `CN1CCC(Oc2cc(CNc3ccc4c(N)nccc4c3)ccn2)CC1` [Example 4259, N6-((2-((1-methylpiperidin-4-yl)oxy)pyridin-4-yl)methyl)isoquinoline-1,6-diamine], the IC50 is 0.3 to 1 µM in [1]; 10 to 40 µM in series [2]; 10 to 40 µM in series [7]; 3 to 10 µM in series [3]; > 40 µM in [8]; 1 to 3 µM in [4].
